The compounds below were run against human TPH1 (Homo sapiens (Human), UniProt P17752) (assay: Biochemical in vitro assay using fluorescence readout (TPH1 inhibition)). Conditions: full length human TPH1, 40 μM L-tryptophan, 15° C., 60 minutes, fluorescence at 540 nm; mean if determined several times.
human TPH1, sequence (P17752 whole entry): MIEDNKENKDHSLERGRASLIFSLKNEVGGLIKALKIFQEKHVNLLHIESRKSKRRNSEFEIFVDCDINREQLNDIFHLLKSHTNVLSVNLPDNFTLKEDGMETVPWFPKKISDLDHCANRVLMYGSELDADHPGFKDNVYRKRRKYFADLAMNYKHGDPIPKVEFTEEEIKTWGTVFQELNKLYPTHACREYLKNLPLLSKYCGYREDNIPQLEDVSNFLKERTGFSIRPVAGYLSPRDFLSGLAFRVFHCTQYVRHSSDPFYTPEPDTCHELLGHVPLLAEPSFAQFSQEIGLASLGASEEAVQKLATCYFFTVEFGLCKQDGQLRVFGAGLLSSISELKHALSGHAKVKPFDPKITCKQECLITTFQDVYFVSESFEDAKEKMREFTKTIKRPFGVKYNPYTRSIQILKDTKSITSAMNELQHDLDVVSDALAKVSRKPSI

Compound | IC50 [nM]
Cc1nn2c3c(nc2s1)CCN(C(=O)COc1ccc(N2CC4CC2CO4)nc1Cl)C3c1ccc(Cl)cc1F (stereo not shown) [Example 1.4.33, 2-((6-(2-Oxa-5-azabicyclo[2.2.1]heptan-5-yl)-2-chloropyridin-3-yl)oxy)-1-(5-(4-chloro-2-fluorophenyl)-2-methyl-7,8-dihydro-[1,3,4]thiadiazolo[2′,3′:2,3]imidazo[4,5-c]pyridin-6(5H)-yl)ethanone] | 2
Cc1nn2c3c(nc2s1)CCN(C(=O)COc1ccc(NS(C)(=O)=O)nc1Cl)C3c1ncc(C(=O)N(C)C)s1 (stereo not shown) [Example 1.37.3, 2-(6-(2-((2-Chloro-6-(methylsulfonamido)pyridin-3-yl)oxy)acetyl)-2-methyl-5,6,7,8-tetrahydro-[1,3,4]thiadiazolo[2′,3′:2,3]imidazo[4,5-c]pyridin-5-yl)-N,N-dimethylthiazole-5-carboxamide] | 40

Same assay, conditions: human TPH1, fluorescence readout

Compound | IC50 [nM]
CNC(=O)c1cc(F)c(C2c3c(nc4sc(C)nn34)CCN2C(=O)COc2ccc(NS(C)(=O)=O)nc2Cl)s1 (stereo not shown) [Example 1.25.7, 5-(6-(2-((2-chloro-6-(methylsulfonamido)pyridin-3-yl)oxy)acetyl)-2-methyl-5,6,7,8-tetrahydro-[1,3,4]thiadiazolo [2′,3′:2,3]imidazo[4,5-c]pyridin-5-yl)-4-fluoro-N-methylthiophene-2-carboxamide] | 7
Cc1ncc(OCC(=O)N2CCc3nc4sc(C)nn4c3C2c2ccc(Cl)cc2F)c(C)n1 (stereo not shown) [Example 1.4.45, 1-(5-(4-chloro-2-fluorophenyl)-2-methyl-7,8-dihydro-[1,3,4]thiadiazolo[2′,3′:2,3]imidazo[4,5-c]pyridin-6(5H)-yl)-2-((2,4-dimethylpyrimidin-5-yl)oxy)ethanone] | 98
O=C(COc1ccc(N2CCOCC2)nc1Cl)N1CCc2nc3sccn3c2C1c1ccc(C2CC2)cc1F (stereo not shown) [Example 6.6.1, 2-((2-chloro-6-morpholinopyridin-3-yl)oxy)-1-(5-(4-cyclopropyl-2-fluorophenyl)-7,8-dihydrothiazolo-[2′,3′:2,3]imidazo[4,5-c]pyridin-6(5H)-yl)ethanone] | 4
Cc1nn2c3c(nc2s1)CCN(C(=O)COc1ccc(C(=O)N(C)C)nc1Cl)C3c1sccc1F (stereo not shown) [Example 1.23.6, 6-chloro-5-(2-(5-(3-fluorothiophen-2-yl)-2-methyl-7,8-dihydro-[1,3,4]thiadiazolo[2′,3′:2,3]imidazo[4,5-c]pyridin-6(5H)-yl)-2-oxoethoxy)-N,N-dimethylpicolinamide] | 5
CNc1ccc(OCC(=O)N2CCc3nc4sc(C)nn4c3C2c2ccc(Cl)nc2F)c(Cl)n1 (stereo not shown) [Example 1.16.3, 1-(5-(6-chloro-2-fluoropyridin-3-yl)-2-methyl-7,8-dihydro-[1,3,4]thiadiazolo[2′,3′:2,3]imidazo[4,5-c]pyridin-6(5H)-yl)-2-((2-chloro-6-(methylamino)pyridin-3-yl)oxy)ethanone] | 8
Cc1noc(C)c1C1c2c(nc3sccn23)CCN1C(=O)COc1ccc(Cl)cc1Cl (stereo not shown) [Example 6.5.2, 2-(2,4-dichlorophenoxy)-1-(5-(3,5-dimethylisoxazol-4-yl)-7,8-dihydrothiazolo[2′,3′:2,3]imidazo[4,5-c]pyridin-6(5H)-yl)ethanone] | 61
Cc1cnc([C@H]2c3c(nc4sc(C)nn34)CCN2C(=O)COc2ccc(C3(N(C)C)CC3)nc2Cl)c(F)c1 [Example 1.31.12, (R)-2-((2-chloro-6-(1-(dimethylamino)cyclopropyl)pyridin-3-yl)oxy)-1-(5-(3-fluoro-5-methylpyridin-2-yl)-2-methyl-7,8-dihydro-[1,3,4]thiadiazolo[2′,3′:2,3]imidazo[4,5-c]pyridin-6(5H)-yl)ethanone] | 217
Cc1nn2c3c(nc2s1)CCN(C(=O)COc1ccc(F)cc1F)C3c1ccc(C2CC2)cc1F (stereo not shown) [Example 1.6.1, 1-(5-(4-cyclopropyl-2-fluorophenyl)-2-methyl-7,8-dihydro-[1,3,4]thiadiazolo[2′,3′:2,3]imidazo[4,5-c]pyridin-6(5H)-yl)-2-(2,4-difluorophenoxy)ethanone] | 13
CNC(=O)c1ccc(OCC(=O)N2CCc3nc4sc(C)nn4c3C2c2sccc2F)c(Cl)n1 (stereo not shown) [Example 1.23.10, 6-chloro-5-(2-(5-(3-fluorothiophen-2-yl)-2-methyl-7,8-dihydro-[1,3,4]thiadiazolo[2′,3′:2,3]imidazo[4,5-c]pyridin-6(5H)-yl)-2-oxoethoxy)-N-methylpicolinamide] | 9
Cc1ccc(OCC(=O)N2CCc3nc4sccn4c3C2c2cnn(-c3ccccc3)c2)cc1 (stereo not shown) [Example 6.13.3, 1-(5-(1-phenyl-1H-pyrazol-4-yl)-7,8-dihydrothiazolo-[2′,3′:2,3]imidazo[4,5-c]pyridin-6(5H)-yl)-2-(p-tolyl-oxy)ethanone] | 53
Cc1ccccc1OCC(=O)N1CCc2nc3sccn3c2C1c1cnn(-c2ccccc2)c1 (stereo not shown) [Example 6.13.4, 1-(5-(1-phenyl-1H-pyrazol-4-yl)-7,8-dihydrothiazolo-[2′,3′:2,3]imidazo[4,5-c]pyridin-6(5H)-yl)-2-(o-tolyl-oxy)ethanone] | 236
Cc1nn2c3c(nc2s1)CCN(C(=O)COc1cccnc1F)C3c1ccc(C2CC2)cc1F (stereo not shown) [Example 1.6.5, 1-(5-(4-cyclopropyl-2-fluorophenyl)-2-methyl-7,8-dihydro-[1,3,4]thiadiazolo[2′,3′:2,3]imidazo[4,5-c]pyridin-6(5H)-yl)-2-((2-fluoropyridin-3-yl)oxy)ethanone] | 89
CCOC(=O)c1ncc(C2c3c(nc4sc(C)nn34)CCN2C(=O)COc2ccc(C#N)cc2Cl)s1 (stereo not shown) [Example 1.30.3, Ethyl 5-(6-(2-(2-chloro-4-cyanophenoxy)acetyl)-2-methyl-5,6,7,8-tetrahydro-[1,3,4]thiadiazolo[2′,3′:2,3]imidazo[4,5-c]pyridin-5-yl)thiazole-2-carboxylate] | 371
Cc1nn2c3c(nc2s1)CCN(C(=O)COc1ccc(N(C)C)nc1Cl)C3c1cnc(N2CCOCC2)s1 (stereo not shown) [Example 1.7.4, 2-((2-chloro-6-(dimethylamino)pyridin-3-yl)oxy)-1-(2-methyl-5-(2-morpholinothiazol-5-yl)-7,8-dihydro-[1,3,4]thiadiazolo[2′,3′:2,3]imidazo[4,5-c]pyridin-6(5H)-yl)ethanone] | 408
Cc1nn2c3c(nc2s1)CCN(C(=O)COc1cc(F)cnc1Cl)C3c1ncc(C2CC2)cc1F (stereo not shown) [Example 1.14.7, 2-((2-chloro-5-fluoropyridin-3-yl)oxy)-1-(5-(5-cyclopropyl-3-fluoropyridin-2-yl)-2-methyl-7,8-dihydro-[1,3,4]thiadiazolo [2′,3′:2,3]imidazo[4,5-c]pyridin-6(5H)-yl)ethanone] | 25
Cc1nn2c3c(nc2s1)CCN(C(=O)COc1ccc(CN2CCOCC2)nc1Cl)C3c1cccnc1F (stereo not shown) [Example 1.2.1, 2-((2-chloro-6-(morpholinomethyl)pyridin-3-yl)oxy)-1-(5-(2-fluoropyridin-3-yl)-2-methyl-7,8-dihydro-[1,3,4]thiadiazolo[2′,3′:2,3]imidazo[4,5-c]pyridine-6(5H)yl) ethanone] | 208
Cc1nn2c3c(nc2s1)CCN(C(=O)COc1cnc(N(C)C)nc1Cl)C3c1ccc(Cl)cc1F (stereo not shown) [Example 1.4.40, 2-((4-chloro-2-(dimethylamino)pyrimidin-5-yl)oxy)-1-(5-(4-chloro-2-fluorophenyl)-2-methyl-7,8-dihydro-[1,3,4]thiadiazolo [2′,3′:2,3]imidazo[4,5-c]pyridin-6(5H)-yl)ethanone] | 4
